{
  "source": "patent US20070149480A1",
  "about": "(Alcon, Inc., priority 2005, published 2007)",
  "key": {"[1]": {"assay": "Solubility of RTKi in phosphate buffer vehicle containing sulfobutylether beta cyclodextrin (SBCD)", "format": "physicochemical", "details": "for solubility: RTKi Solubility", "from_the_text": "(§1) The present inventors have discovered that use of cyclodextrin derivatives to solubilize highly insoluble anti-angiogenic active compounds provides an efficacious ophthalmic formulation. […] Prototype intravitreal vehicle is shown in Example 1, and intravitreal and PJ formulations of the active compound containing HPCD are provided in Examples 2 and 3, respectively."}, "[2]": {"system": "FGFR", "assay": "Kinase inhibition, cell-free enzymatic assay", "format": "biochemical", "details": "1 mM ATP", "experimental": "All data reported as IC50 values for kinase inhibition in cell-free enzymatic assays; ND denotes no data. Values determined @ 1 mM ATP."}, "[3]": {"assay": "Solubility of RTKi in phosphate buffer vehicle containing hydroxypropyl cyclodextrin (HPCD)", "format": "physicochemical", "details": "for solubility enhancement: 10% HPCD in phosphate buffer vs phosphate buffer alone; for solubility: RTKi Solubility", "from_the_text": "as §1\nSolubility of RTKi in phosphate buffer vehicle containing various amount of hydroxypropyl cyclodextrin (HPCD)."}},
  "data": [
    {"smiles": "Cc1ccc(F)c(NC(=O)Nc2ccc(-c3cccc4[nH]nc(N)c34)cc2)c1", "note": "[RTKi, N-[4-(3-amino-1H-indazol-4-yl)phenyl]-N′-(2-fluoro-5-methylphenyl) urea]", "values": [
      {"measurement": "RTKi Solubility", "setting": "[1]; 10% SBCD Phosphate Buffer", "value": 2526.5, "unit": "µg/mL"},
      {"measurement": "solubility", "setting": "[1]; phosphate buffer (0% SBCD), pH 7.2, aqueous buffer", "value": 0.59, "unit": "µg/mL"},
      {"measurement": "solubility", "setting": "[1]; phosphate buffer with 1% SBCD, pH 7.2, aqueous with cosolvent or surfactant or cyclodextrin, 1% SBCD in Phosphate Buffer", "value": 188, "unit": "µg/mL"},
      {"measurement": "solubility", "setting": "[1]; phosphate buffer with 2.5% SBCD, pH 7.2, aqueous with cosolvent or surfactant or cyclodextrin, 2.5% SBCD Phosphate Buffer", "value": 641, "unit": "µg/mL"},
      {"measurement": "solubility", "setting": "[1]; phosphate buffer with 5% SBCD, pH 7.2, aqueous with cosolvent or surfactant or cyclodextrin, 5% SBCD Phosphate Buffer", "value": 1090, "unit": "µg/mL"},
      {"measurement": "solubility", "setting": "[1]; phosphate buffer with 10% SBCD, pH 7.2, aqueous with cosolvent or surfactant or cyclodextrin, 10% SBCD Phosphate Buffer", "value": 2520, "unit": "µg/mL"},
      {"measurement": "solubility", "setting": "[1]; phosphate buffer with 20% SBCD, pH 7.2, aqueous with cosolvent or surfactant or cyclodextrin, 20% SBCD Phosphate Buffer", "value": 4120, "unit": "µg/mL"},
      {"measurement": "IC50", "setting": "[2]", "value": "> 12.5", "unit": "µM"},
      {"measurement": "RTKi Solubility", "setting": "[3]; 10% HPCD Phosphate Buffer", "value": 1098.8, "unit": "µg/mL"},
      {"measurement": "solubility expressed as percent", "setting": "[3]; 10% HPCD in phosphate buffer", "value": "about 0.1%"},
      {"measurement": "solubility enhancement", "setting": "[3]", "value": "More than 1800 fold"},
      {"measurement": "solubility enhancement", "setting": "[3]; listed as active compound", "value": "approximately 1800 fold"},
      {"measurement": "solubility", "setting": "[3]; phosphate buffer (0% HPCD), pH 7.2, aqueous buffer, pH 7.2", "value": 0.59, "unit": "µg/mL"},
      {"measurement": "solubility", "setting": "[3]; phosphate buffer with 1% HPCD, pH 7.2, aqueous with cosolvent or surfactant or cyclodextrin, 1% HPCD in Phosphate Buffer", "value": 82.3, "unit": "µg/mL"},
      {"measurement": "solubility", "setting": "[3]; phosphate buffer with 5% HPCD, pH 7.2, aqueous with cosolvent or surfactant or cyclodextrin, 5% HPCD Phosphate Buffer", "value": 527, "unit": "µg/mL"},
      {"measurement": "solubility", "setting": "[3]; phosphate buffer with 10% HPCD, pH 7.2, aqueous with cosolvent or surfactant or cyclodextrin, 10% HPCD Phosphate Buffer", "value": 1090, "unit": "µg/mL"}
    ]}
  ]
}
